According to publication PMC3869244, “Cyclopamine analogs bearing exocyclic methylenes are highly potent and acid-stable inhibitors of hedgehog signaling” (Beilstein Journal of Organic Chemistry, 2013):
“Also recorded” adds a separate entry of the source. Read-outs that look alike come from different tables or passages of the source.

What was measured:
[1] = cited from earlier work
[2] = system: Gli1-dependent luciferase expression in Shh-LIGHTII cells; details: cited from earlier work
[3] = Stability towards acidic conditions; format: physicochemical; details: pH approximately 1 (MeOH, 1 M HCl), 1H NMR compared with pure compound
Method: Finally, we studied the stability of all newly synthesized compounds towards acidic conditions. Therefore, they were exposed to a pH of approximately 1 (MeOH, 1 M HCl) for 24 h. After evaporation of all volatiles, ^1H NMR spectra were acquired and compared to the initially obtained spectra of the pure compounds. […] This experiment emphasizes the importance of the C-21 methyl group for the stability of exo-cyclopamine derivatives. All synthesized compounds, the number of steps required, and the respective overall yield starting from 3 or 14, as well as their biological activity and stability under acidic conditions are summarized in Table 1.

[4] = system: Gli1-dependent luciferase expression in Shh-LIGHTII cells; test: Gli1-reporter gene assay (luciferase) in Shh-LIGHTII cells; format: cell-based, mouse; details: for IC50: Mus musculus, Shh Light II, 48 h, read-out: Potency in Gli-assay (IC50); for Activity in Gli1-dependent luciferase assay (in words): concentration range 0.01 μM to 10 μM
Method: Next, we examined all synthesized compounds for their ability to inhibit the Gli1-dependent luciferase expression in Shh-LIGHTII cells, a clonal mouse fibroblast cell line which stably incorporates a Gli-dependent firefly luciferase reporter and a constitutive Renilla luciferase reporter. The compounds were tested in a concentration range from 0.01 μM to 10 μM.
Data were obtained from three independent experiments and represent the mean ± standard deviation.
The interference of the exo-cyclopamine derivatives with the hedgehog signaling pathway was tested in an established reporter gene assay based on the inhibition of the target gene Gli1. Shh-LIGHTII cells (ATCC CRL-2795, LGC, Wesel, Germany) represent a clonal mouse fibroblast cell line (NIH 3T3), which stably incorporates a Gli-dependent firefly luciferase reporter and a constitutive Renilla luciferase reporter. They were grown in […] cell culture flasks at 37 °C in a humid atmosphere with 5% CO2. Cell growth medium […] (Dulbecco's Modified Eagle's Medium, high glucose, sodium pyruvate, w/o glutamine), ZeocinTM Selection Reagent and Geneticin® Selection Antibiotic (G418 sulfate) were obtained from Invitrogen. Additive L-glutamin and trypsin were obtained from PAA. VerseneTM chelating agent was obtained from Gibco, bovine fetal serum (FBS) from Sigma. The cell freeze medium contained 5% DMSO in complete growth medium. The cell number was counted using a Neubauer-Zählkammer (Hemocytometer).
(§1) […] (high glucose, sodium pyruvate, w/o glutamine) supplemented with 0.5% FBS, 4 mM L-glutamin and 50 mM HEPES buffer (4-(2-hydroxyethyl)-1-piperazine ethanesulfonic acid) (pH 7.4) was used as incubation medium. The measurement of reporter gene and constitutive Renilla luminescence was performed with the Dual Luciferase® reporter system according to the manufacturer’s instructions (Promega, Mannheim, Germany) using a GENios reader (TECAN, Crailsheim, Germany).
Luciferase reporter assay.
For performing the assay, Shh-LIGHTII cells were grown to reach 80% confluence, washed twice with Versene, detached with 2 mL trypsin for not longer than 2 min and resuspended in 8 mL of growth medium. After centrifugation for 3 min, the supernatant was removed and the cell pellet dissolved in approximately 10 mL of growth medium. Finally, 20,000 to 100,000 cells per well were cultured in a 24-well plate for 48 h. For exposure to the derivatives the growth medium was removed and the cells were exposed to the compound in 500 μL/well incubation medium for 48 h. Stock solutions were prepared in EtOH and introduced in different concentrations into the incubation medium to reach a final solvent concentration of 0.05%. Due to the assay principle, Shh-LIGHTII cells had to be co-exposed to 100 nM of SAG (Smoothened agonist) for determining the inhibitory activity of the compounds. A SAG stock solution was prepared in EtOH and introduced into the medium. The final EtOH concentration – introduced by SAG and the test compound – was 0.1%. As a positive control a 100 nM SAG solution in incubation medium (0.1% EtOH) was used, negative controls were treated with EtOH […]
Performing the luciferase measurement.
After 48 h of incubation cells were washed with 500 μL PBS (phosphate buffered saline, w Mg/Ca, Invitrogen) and afterwards incubated for 15 min with 100 μL 1 x passive lysis buffer on a shaker. The lysed cells together with lysis solution were transferred into 1.5 mL reaction tubes, centrifuged for 1 min at 4 °C and kept on ice until further use. At first, the blank of luminescence of a 96-well plate (flat bottom, white, Greiner bio-one) was recorded. Then, 100 μL luciferase assay reagent and 10 μL cell supernatant were mixed per well and the luminescence of firefly luciferase was recorded. Addition of 100 μL Stop&Glo® reagent permitted the recording

[5] = system: Shh-LIGHTII cells; test: Cytotoxicity observed in the reporter gene assay; format: cell-based, mouse; details: in the concentration range tested (0.01 μM to 10 μM)
Method: Given the negative test results of compounds 8 and 9 it becomes evident that the F-ring is necessary for bioactivity. The piperidine moiety provides a rather rigidly placed nitrogen atom. Nevertheless, a pyrrolidine as in compound 23 still provides the correct orientation of the nitrogen atom.
The interference of the exo-cyclopamine derivatives with the hedgehog signaling pathway was tested in an established reporter gene assay based on the inhibition of the target gene Gli1. […] The cell number was counted using a Neubauer-Zählkammer (Hemocytometer).
as §1, with “Germany). […]” for “Germany).”
After 48 h of incubation cells were washed with 500 μL PBS (phosphate buffered saline, w Mg/Ca, Invitrogen) and afterwards incubated for 15 min with 100 μL 1 x passive lysis buffer on a shaker. […] At first, the blank of luminescence of a 96-well plate (flat bottom, white, Greiner bio-one) was recorded. […]

[6] = read-out: Potency in Gli-assay, previously synthesized and biologically evaluated
[7] = Shh-LIGHTII cells, co-exposed to 100 nM SAG, tested 0.01 μM to 10 μM, mean ± standard deviation of three independent experiments

Row | Compound | Stability towards acid (pH ~1, 24 h) [3] | IC50 [4, 7] [µM] | Activity in Gli1-dependent luciferase assay (in words) [4] | other results
1 | CC1=C2C[C@H]3[C@@H](CC=C4C[C@@H](O)CC[C@@]43C)[C@@H]2CC[C@]12O[C@@H]1C[C@H](C)CN[C@H]1[C@H]2C [Compound 1, cyclopamine] | – | – | – | pH at which decomposition occurs ([1]; low metabolic stability (decomposition)): < 3; Stability towards acid (pH ~1, 24 h) ([1]; previously synthesized and evaluated compounds): decomp.; IC50 ([2]; read-out: Potency (IC50) as inhibitor of hedgehog signaling, introductory statement, no assay details printed): ~5 µM; IC50 [2, 6]: 5 µM
2 | C=C1[C@@H]2C[C@H]3[C@@H](CC=C4C[C@@H](O)CC[C@@]43C)[C@@H]2CC[C@]12O[C@@H]1C[C@H](C)CN[C@H]1[C@H]2C [Compound 2, exo-cyclopamine] | – | – | – | IC50 [2, 6]: 0.5 µM
3 | C=C1C2CC3C(CC=C4CC(O)CCC43C)C2CCC12OC1CC(C)CNC1C2C (stereo not drawn) [Compound 5, 25-epi-exo-cyclopamine] | remained unchanged; also recorded: stable | 3.29 ± 0.31 | – | –
4 | C=C1CNC2C(C1)OC1(CCC3C(CC4C3CC=C3CC(O)CCC34C)C1=C)C2C (stereo not drawn) [Compound 6, bis-exo-cyclopamine] | – | 0.2 ± 0.01 | – | Potency relative to parent compound (cyclopamine) ([4]; surpasses potency of parent compound): 25 fold
5 | C=C1[C@@H]2C[C@H]3[C@@H](CC=C4C[C@@H](O)CC[C@@]43C)[C@@H]2CC[C@]12OC[C@@H](NCC)[C@H]2C [Compound 8] | remained unchanged; also recorded: stable | > 10 | no activity | Cytotoxicity [5]: induced cytotoxicity
6 | C=C1[C@@H]2C[C@H]3[C@@H](CC=C4C[C@@H](O)CC[C@@]43C)[C@@H]2CC[C@]12OC[C@@H](N)[C@H]2C [Compound 9] | remained unchanged; also recorded: stable | > 10 | no activity | Cytotoxicity [5]: induced cytotoxicity
7 | C=C1CN[C@H]2C[C@@]3(CC[C@H]4[C@@H]5CC=C6C[C@@H](O)CC[C@]6(C)[C@H]5C[C@H]4C3=C)O[C@@H]2C1 [Compound 19, 20-demethyl-bis-exo-cyclopamine] | showed decomposition; also recorded: decomp | – | no activity; also recorded: completely inactive | IC50 [4]: > 10 µM
8 | C=C1C2CC3C(CC=C4CC(O)CCC43C)C2CCC12CC1NCCC1O2 (stereo not drawn) [Compound 23, F-nor-20,25-bis-demethyl-exo-cyclopamine] | showed decomposition; also recorded: decomp | 6.4 ± 0.9 | – | –
